# Measurements from US12577239B2, “Sulfilimines or sulfoximines containing fungicidal heterocyclic compounds” (PI INDUSTRIES LTD., priority 2019, dated 2026).
# Test system: Phytophthora infestans
# Assay: microbe, parasite or virus in culture
# Format: cell-based
# Details: 168 h, read-out: control compared to the untreated check
row,Structure (SMILES),inhibition of growth at 30 ppm [%]
1,CN=S(C)(=O)c1cccc(Cl)c1C1CC(c2csc(C3CCN(C(=O)Cn4c(C)ccc(C(F)(F)F)c4=O)CC3)n2)=NO1 (centres unmarked) [Compound 174],≥ 70
2,"CS(=N)(=O)c1cccc(Cl)c1C1CC(c2csc(C3CCN(C(=O)Cn4cc(C(F)(F)F)ccc4=O)CC3)n2)=NO1 (centres unmarked) [Compound 169, 1-(2-(4-(4-(5-(2-chloro-6-(S-methylsulfonimidoyl)phenyl)-4,5-dihydroisoxazol-3-yl)thiazol-2-yl)piperidin-1-yl)-2-oxoethyl)-5-(trifluoromethyl)pyridin-2(1H)-one]",≥ 70
3,CC(C)S(=N)(=O)c1cccc(Cl)c1C1CC(c2csc(C3CCN(C(=O)Cn4ccnc(C(F)(F)F)c4=O)CC3)n2)=NO1 (centres unmarked) [Compound 64],≥ 70
4,"CS(=N)(=O)c1cccc(Cl)c1C1CC(c2csc(C3CCN(C(=O)Cn4nc(C(F)F)cc4C(F)F)CC3)n2)=NO1 (centres unmarked) [Compound 3, (2-(3-(2-(1-(2-(3,5-bis (difluoromethyl)-1H-pyrazol-1-yl)acetyl)piperidin-4-yl)thiazol-4-yl)-4,5-dihydroisoxazol-5-yl)-3-chlorophenyl) (imino) (methyl)-λ^6-sulfanone]",≥ 70
5,"CS(=N)(=O)c1cccc(Cl)c1C1CC(c2csc(C3CCN(C(=O)Cn4cc(Cl)cc(C(F)(F)F)c4=O)CC3)n2)=NO1 (centres unmarked) [Compound 1, 5-chloro-1-(2-(4-(4-(5-(2-chloro-6-(S-methylsulfonimidoyl)phenyl)-4,5-dihydroisoxazol-3-yl)thiazol-2-yl)piperidin-1-yl)-2-oxoethyl)-3-(trifluoromethyl)pyridin-2(1H)-one]",≥ 70
6,"CS(=N)(=O)c1cccc(Cl)c1C1CC(c2csc(C3CCN(C(=O)Cn4cc(C(F)(F)F)cc(Cl)c4=O)CC3)n2)=NO1 (centres unmarked) [Compound 2, 3-chloro-1-(2-(4-(4-(5-(2-chloro-6-(S-methylsulfonimidoyl)phenyl)-4,5-dihydroisoxazol-3-yl)thiazol-2-yl)piperidin-1-yl)-2-oxoethyl)-5-(trifluoromethyl)pyridin-2(1H)-one]",≥ 70
7,CS(=N)(=O)c1cccc(C#N)c1C1CC(c2csc(C3CCN(C(=O)Cn4nc(C(F)F)cc4C(F)F)CC3)n2)=NO1 (centres unmarked) [Compound 164],≥ 70
8,"Cc1cc(C(F)(F)F)nn1CC(=O)N1CCC(c2nc(C3=NOC(c4c(F)cccc4N=S(C)(C)=O)C3)cs2)CC1 (centres unmarked) [Compound 6, ((3-fluoro-2-(3-(2-(1-(2-(5-methyl-3-(trifluoromethyl)-1H-pyrazol-1-yl)acetyl)piperidin-4-yl)thiazol-4-yl)-4,5-dihydroisoxazol-5-yl)phenyl)imino)dimethyl-λ^6-sulfanone]",≥ 70
